Source: patent US10391150B2, “Treatments for migraine and related disorders” (The University of Chicago, priority 2011, dated 2019)

Columns and labels:
[1] = tested on: spreading depression (SD) in hippocampal slice cultures; assay: Spreading depression (SD) threshold / susceptibility in hippocampal slice cultures; format: cell-based, rat
Description: FIGS. 2A-2E. […] (FIG. 2A) Experiments begin with determination of the current needed to maximize standard CA3 area field potential responses. Half-maximal intensity is then used to elicit CA3 area evoked field potentials from dentate gyrus bipolar electrical stimulation. This documents the normalcy of evoked synaptic responses between preparations. If a slice's field excitatory post synaptic potentials are not at least 3 mV, slices are discarded. Next, field potential trains (i) are noted to verify that preparations are healthy enough to follow 10 Hz stimulation (e.g., amplitudes of vertical deviations in fast potential records are similar) and the current needed to trigger SD (ii) is registered (Pusic and Kraig, 2010).
(FIG. 8a) Exemplary CA3 area evoked field potential. Experiments begin with establishment of the current intensity needed to evoke maximal field potential responses; stimuli of half-maximal intensity were then used to elicit subsequent field potentials. Only those cultures with CA3 pyramidal neuron post-synaptic responses of at least 3 mV were used for experiments. (FIG. 8b) CA3 response to dentate gyrus bipolar stimulation (10 pulses at 10 Hz, 500 μA) was used to elicit a spreading depression (SD), as shown in (FIG. 8c). (FIG. 8c) The spreading depression (SD) shown here was induced by the stimulation/response (arrow) shown in (FIG. 8b). […] Comparisons between groups made via Student's t-test.
The inventors induced SD trans-synaptically in rat HSC using electrical stimuli (100 μs pulses @ 10 Hz for 1 s) ranging from 1 to 10,000 nC in order to determine SD threshold in sham and experimental groups (Pusic et al., 2011). Results were based on n≥3-6/group. […] This insulin dose approximates the pharmacological levels seen in humans treated with nasal insulin.
Slice cultures were prepared and maintained as previously described (Mitchell et al., 2010a,). After 18 days in vitro (DIV), slice cultures were transferred to serum-free media that included additional calcium and magnesium. Cultures were screened at 21 DIV to ensure no pyramidal neuron death was present. Standard electrophysiological recordings were performed by placing a slice culture insert in a PDMI recording chamber with controlled temperature and pH (FIG. 1). The recording chamber was aerated with 5% CO2-balance air at 36° C. and media flowing at 1.2 mL/min or was held static around the slice culture insert. A recording electrode was placed at the CA3 pyramidal cell layer and a stimulating electrode was placed at the surface of the dentate gyrus. Recordings were initiated prior to placing the stimulating electrode on the culture to ensure no spreading depression was triggered as a result.
Studies began with determination of the current needed to maximize standard CA3 area field potential responses. This documented the normalcy of evoked synaptic responses between preparations. If a slice's field EPSPs were not at least 3-4 mV, it was discarded.
Next, trans-synaptically evoked SD was determined. Here, the inventors stimulated slices via the dentate gyrus with 100 μs pulses delivered at 10 Hz for 1 sec every 1-2 minutes at increasing μA current intensities until SD occurred.
Slice cultures are prepared, maintained, and induced to fire SD as previously described using trans-synaptic excitation of CA3, where SD is initiated (FIG. 4) (Kunkler et al., 2005; Pusic et al., 2011).

[2] = tested on: SD in neocortex and hippocampus of anesthetized rat; assay: SD threshold in vivo (0.5 M KCl injection) after nasal administration; conditions: control 1-8 nL
Experimental: Images show experimental setups for nasal administration and testing. (FIG. 7A) Nasal injection setup showing heat lamp and thermo-regulator that maintains temperature at 37° C. plus nose cone used to deliver isoflurane anesthesia. (FIG. 7B) Operator is shown administering nasal IGF-1 solution, which is performed in a fume hood to adequately vent isoflurane from nose cone. (FIG. 7C) Image illustrates standard electrophysiology setup. Anesthetized animal is placed into a standard electrophysiology holder and anesthesia maintained by a nose cone delivering 3% isoflurane in oxygen. Arterial oxygen saturation is monitored with a pulse-oximeter. Animals are warmed to 37.5° C. with a heating plate. SD is induced by progressively injecting larger volumes of 0.5 M KCl from an 8 μm diameter microelectrode. SD is registered with a second microelectrode used for DC recordings placed more caudally. After SD is evoked by a given injection pulse, the stimulating electrode is withdrawn and a volume re-injected under mineral oil. The diameter of the resultant KCl injection sphere is then measured off line using a compound microscope and the injection volume calculated. For example, in the above whole animal experiments it took 1-8 nL of 0.5 M KCl to evoke SD in control brain regions while after acute IGF-1 this amount rose to 67-109 nL. A day after IGF-1 treatment the volume needed to evoked SD was 34-48 nL. IFN-γ treatment required 338 nL of 0.5 M KCl a day after treatment and IL-11 required 67-200 nL.
Rats (FIGS. 6 and 7) are anesthetized with inhalational isoflurane and kept warm. While anesthetized, animals are placed in a supine position and 50 μL of sterile drug (i.e., IFN-γ, IGF-1, or IL-11) solution [or sterile saline vehicle (sham control)] is administered nasally by delivering 5 μL alternating between the left and right naris every 2 min over 20 minutes. Animals are given nasal drug treatments daily at the same time for 7 days before subsequent experiments. Doses for all 3 agents begin with the effective doses noted in our work using slice cultures (1×), then include others (0.1× and 10×). The inventors base this strategy on the fact that the effective culture dose for IGF-1 (40 ng/mL) closely approximates the dose used in vivo (143 μg/kg).
This approach was applied to measurement of SD threshold (FIG. 10) after treatment (FIG. 7) with nasally administered IGF-1 (150 μg), IL-11 (1 μg), IFN-γ (50,000 units), and insulin (20 μg). […] Resistance against SD was always greater in hippocampus compared to neocortex (n=4, controls; n=3, acutely after IGF-1; n=6, one day after IGF-1; n=6, one day after IL-11; n=6, one day after IFN-γ; and n=3, acutely after insulin).
Nasal administration followed by SD threshold evaluation in vivo. Vehicle or human recombinant IGF-1 (150 μg) is administered intranasally. SD threshold is established by injection of nanoliter volumes of 0.5 M KCl into neocortex or hippocampus (−2.0 mm from Bregma and 1.5 mm lateral from midline at either 750 μm or 2,800 μm into brain, respectively) using a thin-walled glass pipette and Picospritzer. Once a threshold is established, it is confirmed two more times, with an exemplary record from a vehicle-sham animal shown below. […] The diameter of the injected sphere is then measured using a compound microscope and used to calculate the injected volume, then moles of potassium. […]

[3] = a day after nasal treatment (IGF-1 150 μg; IL-11 1 μg; IFN-γ 50,000 units)

## Insulin-like growth factor 1 [IGF-1]
[1]; 3-day exposure to IGF-1
  increase of SD threshold compared to control: 75 fold
[1]; 7-day phasic exposure to IGF-1 (12 hours a day)
  increase of SD threshold compared to control: 22 fold
[1]; acute (15-30 min) exposure to IGF-1
  increase of SD threshold compared to control: 24 fold
[1]; coincubation with ascorbate and IGF-1 versus IGF-1 alone
  relative SD threshold levels: 1.00±0.31
[2]; [3]
  volume of 0.5 M KCl needed to evoke SD: 34 to 48 nL
[2]; acutely after nasal treatment (IGF-1 150 μg; insulin 20 μg)
  volume of 0.5 M KCl needed to evoke SD: 67 to 109 nL

B1: Interferon-gamma (protein, listed as Homo sapiens)
chain: MKYTSYILAFQLCIVLGSLGCYCQDPYVKEAENLKKYFNAGHSDVADNGTLFLGILKNWKEESDRKIMQSQIVSFYFKLFKNFKDDQSIQKSVETIKEDMNVKFFNSNKKKRDDFEKLTNYSVTDLNVQRKAIHELIQVMAELSPAAKTGKRKRSQMLFRGRRASQ
[1]; IFN-γ 500 U/mL, at 1 day
  susceptibility to SD: significantly increased susceptibility to SD
[2]; [3]
  volume of 0.5 M KCl needed to evoke SD: 338 nL
